The text below walks through data of patent EP1174424A1, “3-[…] D DERIVATIVES” (CHUGAI SEIYAKU KABUSHIKI KAISHA, priority 1999, dated 2000).

SMILES strings stand for the structures.

For the assay, the target named is T1, Bovine thymus 1α,25-dihydroxy vitamin D3 receptor (Bos taurus, UniProt Q28037).
T1 construct: Bovine thymus 1α,25-dihydroxy vitamin D3 receptor was purchased from YAMASA BIOCHEMICAL; purchased YAMASA BIOCHEMICAL (Choshi, Chiba, Japan); host or cells: bovine thymus (tissue preparation)
T1 sequence (Q28037 1-426): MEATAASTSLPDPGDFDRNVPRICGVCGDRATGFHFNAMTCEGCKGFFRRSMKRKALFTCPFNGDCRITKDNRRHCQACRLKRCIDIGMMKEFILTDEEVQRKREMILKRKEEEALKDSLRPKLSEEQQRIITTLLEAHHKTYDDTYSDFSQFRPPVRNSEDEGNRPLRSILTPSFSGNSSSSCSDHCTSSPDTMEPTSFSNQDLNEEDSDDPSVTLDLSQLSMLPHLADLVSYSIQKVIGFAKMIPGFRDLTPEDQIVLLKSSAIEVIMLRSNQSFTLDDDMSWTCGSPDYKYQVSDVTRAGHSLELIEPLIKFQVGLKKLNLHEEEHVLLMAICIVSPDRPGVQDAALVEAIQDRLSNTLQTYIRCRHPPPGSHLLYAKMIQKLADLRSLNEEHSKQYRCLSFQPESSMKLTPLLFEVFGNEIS
The experiment in a line: Assay for binding to vitamin D receptor (VDR); displacement of [3H]-1α,25-dihydroxy vitamin D3. As to conditions: relative value, with that of 1α,25-dihydroxy vitamin D3 taken as 100; [3H]-1α,25-dihydroxy vitamin D3 at 0.1 nM, overnight at 4°C. On the procedure:
Test example 1: Assay for binding to vitamin D receptor (VDR)
Bovine thymus 1α,25-dihydroxy vitamin D3 receptor was purchased from YAMASA BIOCHEMICAL (Choshi, Chiba, Japan) and dissolved in 0.05 M phosphate buffer (pH 7.4) containing 0.3M KCl and 5mM dithiothreitol just before use. Aliquots (500 µl, 0.23 mg protein) of the receptor solution and ethanol solutions (50 µl) of 1α,25-dihydroxy vitamin D3 or derivatives (compounds of the present invention) at various concentrations were combined, and pre-incubated at 25°C for 60 minutes. To the resultant receptor mixtures, [^3H]-1α,25-dihydroxy vitamin D3 was added at 0.1 nM, followed by standing overnight at 4°C. The mixtures were treated with dextran coated charcoal for 30 minutes at 4°C to separate the bound arid free forms of [^3H]-1α,25-dihydroxy vitamin D3, and centrifuged at 3000 rpm for ten minutes. Each of the resultant supernatants (500 µl) was mixed with ACS-II (9.5 ml) (AMERSHAM, England) for radioactivity measurement.
The binding property of the compounds of the present invention was expressed in relative values, with that of 1α,25-dihydroxy vitamin D3 taken as 100. (Table 1)
For orientation: Displacement assays read how much labelled ligand stays bound in the presence of the test substance.

Regarding `C=C1/C(=C\C=C2/CCC[C@]3(C)[C@@H]([C@H](C)CCCC(C)(C)O)CC[C@@H]23)C[C@](C)(O)C[C@H]1O` [3-Me-(1β,3α)-dihydroxy vitamin D3, 3-methyl-1β,3α-dihydroxy vitamin D3], the Binding property is given as below 0.1. Under `C=C1/C(=C\C=C2/CCC[C@]3(C)[C@@H]([C@H](C)CCCC(C)(C)O)CC[C@@H]23)C[C@@](C)(O)C[C@@H]1O` [3-Me-(1α,3β)-dihydroxy vitamin D3] stands 18; under `C=C1/C(=C\C=C2/CCC[C@]3(C)[C@@H]([C@H](C)CCCC(C)(C)O)CC[C@@H]23)C[C@](C)(O)C[C@@H]1O` [3-Me-(1α,3α)-dihydroxy vitamin D3], below 0.1. To `C=C1/C(=C\C=C2/CCC[C@]3(C)[C@@H]([C@H](C)CCCC(C)(C)O)CC[C@@H]23)C[C@@](C)(O)C[C@H]1O` [3-Me-(1β,3β)-dihydroxy vitamin D3, 3-methyl-1β,3β-dihydroxy vitamin D3] belongs below 0.1.
